Laboratory results as given in US7378440B2, “Substituted benzoylureido-o-benzoylamides, process for their preparation and their use” (Sanofi-Aventis Deutschland GmbH, priority 2003, dated 2008).

Experiments:
[1] = target: T1, human glycogen phosphorylase a (Homo sapiens, UniProt P06737); assay: Glycogen phosphorylase a activity assay; format: biochemical; settings: inhibition of GPa measured in reverse direction (glycogen synthesis from glucose 1-phosphate, liberated phosphate, absorption 820 nm)
T1 sequence (P06737 1-847): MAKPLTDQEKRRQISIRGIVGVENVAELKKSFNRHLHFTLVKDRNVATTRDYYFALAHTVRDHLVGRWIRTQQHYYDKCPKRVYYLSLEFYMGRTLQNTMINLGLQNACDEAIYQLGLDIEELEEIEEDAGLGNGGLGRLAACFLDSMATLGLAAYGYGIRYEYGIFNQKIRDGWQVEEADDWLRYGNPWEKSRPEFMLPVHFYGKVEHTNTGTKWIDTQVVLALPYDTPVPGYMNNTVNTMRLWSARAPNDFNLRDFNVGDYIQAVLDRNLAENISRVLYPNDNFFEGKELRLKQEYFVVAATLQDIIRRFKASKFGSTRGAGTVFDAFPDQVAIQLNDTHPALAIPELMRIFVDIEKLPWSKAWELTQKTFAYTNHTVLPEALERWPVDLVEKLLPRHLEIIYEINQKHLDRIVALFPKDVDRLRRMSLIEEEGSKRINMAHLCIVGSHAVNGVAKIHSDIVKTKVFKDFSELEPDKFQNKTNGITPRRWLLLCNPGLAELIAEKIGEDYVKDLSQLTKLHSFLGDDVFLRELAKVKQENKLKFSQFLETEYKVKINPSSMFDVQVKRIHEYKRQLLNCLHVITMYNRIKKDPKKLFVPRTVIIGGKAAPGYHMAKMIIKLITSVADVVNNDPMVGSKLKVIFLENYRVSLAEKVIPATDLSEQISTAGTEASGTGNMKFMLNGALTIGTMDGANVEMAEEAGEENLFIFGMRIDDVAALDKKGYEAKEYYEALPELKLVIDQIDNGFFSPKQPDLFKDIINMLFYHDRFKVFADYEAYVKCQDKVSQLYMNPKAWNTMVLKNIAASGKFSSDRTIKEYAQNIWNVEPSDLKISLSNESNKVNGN
Method: Glycogen Phosphorylase a Activity Assay
The effect of compounds on the activity of the active form of glycogen phosphorylase (GPa) was measured in the reverse direction by following the synthesis of glycogen from glucose 1-phosphate by determining the liberation of inorganic phosphate. All the reactions were carried out as duplicate determinations in microtiter plates with 96 wells (Half Area Plates, Costar No 3696), measuring the change in absorption owing to the formation of the reaction product at the wavelength specified hereinafter in a Multiskan Ascent Elisa Reader (Lab Systems, Finland).
In order to measure the GPa enzymic activity in the reverse direction, the general method of Engers et al. (Engers H D, Shechosky S, Madsen N B, Can J Biochem 1970 July;48(7):746-754) was used to measure the conversion of glucose 1-phosphate into glycogen and inorganic phosphate, with the following modifications: human glycogen phosphorylase a (for example with 0.76 mg of protein/ml (Aventis Pharma Deutschland GmbH), dissolved in buffer solution E (25 mM β-glycerophosphate, pH 7.0, 1 mM EDTA and 1 mM dithiothreitol) was diluted with buffer T (50 mM Hepes, pH 7.0, 100 mM KCl, 2.5 mM EDTA, 2.5 mM MgCl2.6H2O) and addition of 5 mg/ml glycogen to a concentration of 10 μg of protein/ml. Test substances were prepared as 10 mM solution in DMSO and diluted to 50 μM with buffer solution T. To 10 μl of this solution were added 10 μl of 37.5 mM glucose, dissolved in buffer solution T, and 5 mg/ml glycogen, plus 10 μt of a solution of human glycogen phosphorylase a (10 μg of protein/ml) and 20 μl of glucose 1-phosphate, 2,5 mM. The baseline glycogen phosphorylase a activity in the absence of test substance was determined by adding 10 μl of buffer solution T (0.1% DMSO). The mixture was incubated at room temperature for 40 minutes, and the liberated […] was measured by the general method of Drueckes et al. (Drueckes P, Schinzel R, Palm D, Anal Biochem 1995 Sep. 1;230(1):173-177) with the following modifications: 50 μl of a stop solution of 7.3 mM ammonium molybdate, 10.9 mM zinc acetate, 3.6% ascorbic acid, 0.9% SDS are added to 50 μl of the enzyme mixture. After incubation at 45° C. for 60 minutes, the absorption at 820 nm was measured. To determine the background absorption, in a separate mixture the stop solution was added immediately after addition of the glucose 1-phosphate solution. […]

Compound | IC50 [1] | melting point
O=C(NC(=O)c1cc(F)c(F)cc1Cl)Nc1ccccc1C(=O)N1CCC[C@@H]1C(=O)O [Example 1, R-1-{2-[3-(2-Chloro-4,5-difluorobenzoyl)ureido]benzoyl}pyrrolidine-2-carboxylic acid] | 30 nM | 123.5 °C
O=C(NC(=O)c1cc(F)c(F)cc1Cl)Nc1ccccc1C(=O)N1CCC[C@H]1C(=O)O [Example 2] | 2100 nM | 128.4 °C
O=C(NC(=O)c1cc(F)c(F)cc1Cl)Nc1ccccc1C(=O)N1CCCC1C(=O)O (stereo not shown) [Example 3] | 120 nM | 193.1 °C
COC(=O)[C@H]1CCCN1C(=O)c1ccccc1NC(=O)NC(=O)c1cc(F)c(F)cc1Cl [Example 4] | 570 nM | –
O=C(NC(=O)c1cc(F)c(F)cc1Cl)Nc1ccccc1C(=O)N1CCC1C(=O)O (stereo not shown) [Example 5] | 30 nM | 99 °C
O=C(NC(=O)c1cc(F)c(F)cc1Cl)Nc1ccccc1C(=O)N1CC(F)(F)CC1C(=O)O (stereo not shown) [Example 6] | 1400 nM | 102 °C
O=C(NC(=O)c1cc(F)c(F)cc1Cl)Nc1ccccc1C(=O)N1C2CCCCC2C[C@H]1C(=O)O (stereo partly shown) [Example 7] | 4000 nM | 125 °C
